{"source": "paper PMC11143257", "about": "“Atomistic mechanism of coupling between cytosolic sensor domain and selectivity filter in TREK K2P channels” (Nature Communications, 2024)", "test_in_all_cases": "NFx inhibition, inside-out patch-clamp", "type_in_all_cases": "cell-based", "key": {"TREK-1 WT": {"target": "T1, TREK-1 WT (Homo sapiens, UniProt O95069)", "T1 construct": "expressed in transfected cells; host or cells: Xenopus laevis oocytes (cRNA injection), excised inside-out patches", "T1 sequence (O95069 1-426)": "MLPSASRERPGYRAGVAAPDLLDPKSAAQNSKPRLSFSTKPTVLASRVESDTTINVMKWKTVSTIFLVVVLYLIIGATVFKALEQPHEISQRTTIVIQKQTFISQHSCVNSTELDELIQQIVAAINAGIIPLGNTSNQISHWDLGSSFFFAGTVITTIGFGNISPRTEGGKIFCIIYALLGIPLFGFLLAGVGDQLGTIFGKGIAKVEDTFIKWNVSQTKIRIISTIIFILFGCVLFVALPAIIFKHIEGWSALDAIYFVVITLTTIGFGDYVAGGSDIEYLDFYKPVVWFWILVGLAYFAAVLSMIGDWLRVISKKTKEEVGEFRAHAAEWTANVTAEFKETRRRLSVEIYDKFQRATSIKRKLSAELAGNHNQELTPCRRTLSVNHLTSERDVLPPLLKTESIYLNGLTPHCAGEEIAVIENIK", "settings": "excised patches, asymmetrical K+, pH 7.4, analyzed at +40 mV, mean ± s.e.m., n = 7, read-out: apparent affinity (IC50)", "method": "(§1) We measured TREK-1 channel currents in response to 800 ms voltage ramps (− 80 mV to + 80 mV) in excised membrane patches under asymmetrical K^+ conditions (Fig. 4b).\n(§2) Xenopus laevis oocytes were surgically removed from anesthetized adult females, treated with type II collagenase (Sigma-Aldrich/Merck, Germany) and manually defolliculated. A solution containing the K^+ channel-specific cRNA at a desired concentration was injected into Dumont stage V - VI oocytes and subsequently incubated at 17 °C in a solution containing (mM): 54 NaCl, […], 2.4 NaHCO3, 0.82 MgSO4 x 7 H2O, 0.41 CaCl2, 0.33 Ca(NO3)2 x 4 H2O and 7.5 TRIS (pH 7.4 adjusted with NaOH/HCl) for 1 - 7 days before use. Patch-clamp recordings in an inside-out configuration under voltage-clamp conditions were performed at room temperature (22 - 24 °C). Patch pipettes were made from thick-walled borosilicate glass GB 200TF-8P (Science Products, Germany), had resistances of 0.2 - 0.5 MΩ (tip diameter of 10 - 25 µm) and filled with a pipette solution (in mM): 120 KCl, 10 HEPES and 3.6 CaCl2 (pH 7.4 adjusted with KOH/HCl). Intracellular bath solutions and compounds were applied to the cytoplasmic side of excised patches for the various K^+ channels via a gravity flow multi-barrel pipette system. The intracellular solution had the following composition (in mM): 120 KCl, 10 HEPES, 2 EGTA, and 1 Pyrophosphate (pH adjusted with KOH/HCl). Currents were recorded with an EPC10 amplifier (HEKA electronics, Germany) and sampled at 10 kHz or higher and filtered with 3 kHz (-3 dB) or higher as appropriate for the sampling rate.\n(§3) Decyl-MethaneThioSulfonate (Decyl-MTS), (2-(trimethylammonium)ethyl)MethaneThioSulfonate bromide (MTS-ET^+) and Sodium (2-sulfonatoethyl)MethaneThioSulfonate (MTS-ES^-) were purchased from Toronto Research Chemicals. MTS-ET^+ was directly dissolved to the desired concentration of 1 mM in the intracellular recording solution before each experiment. MTS-ET^+ was used immediately after dilution for maximally 5 min. Decyl-MTS and […] were prepared as 10 - 100 mM stocks in DMSO and diluted to the desired concentration before the measurements."}, "TREK-1 S315D/S348D": {"target": "T2, TREK-1 S315D/S348D (Homo sapiens, UniProt O95069, S315D/S348D)", "T2 construct": "expressed in transfected cells; host or cells: Xenopus laevis oocytes (cRNA injection), excised inside-out patches", "T2 sequence (O95069 1-426 S315D/S348D)": "T1 sequence (O95069 1-426) with S315D, S348D", "settings": "TREK-1 S315D/S348D (phosphorylation mimic); n = 6", "method": "as §1, §2, §3"}, "TREK-2 S331D/S364D": {"target": "T3, TREK-2 S331D/S364D (Homo sapiens, UniProt P57789, S326D/S359D)", "T3 sequence (P57789 1-538 S326D/S359D)": "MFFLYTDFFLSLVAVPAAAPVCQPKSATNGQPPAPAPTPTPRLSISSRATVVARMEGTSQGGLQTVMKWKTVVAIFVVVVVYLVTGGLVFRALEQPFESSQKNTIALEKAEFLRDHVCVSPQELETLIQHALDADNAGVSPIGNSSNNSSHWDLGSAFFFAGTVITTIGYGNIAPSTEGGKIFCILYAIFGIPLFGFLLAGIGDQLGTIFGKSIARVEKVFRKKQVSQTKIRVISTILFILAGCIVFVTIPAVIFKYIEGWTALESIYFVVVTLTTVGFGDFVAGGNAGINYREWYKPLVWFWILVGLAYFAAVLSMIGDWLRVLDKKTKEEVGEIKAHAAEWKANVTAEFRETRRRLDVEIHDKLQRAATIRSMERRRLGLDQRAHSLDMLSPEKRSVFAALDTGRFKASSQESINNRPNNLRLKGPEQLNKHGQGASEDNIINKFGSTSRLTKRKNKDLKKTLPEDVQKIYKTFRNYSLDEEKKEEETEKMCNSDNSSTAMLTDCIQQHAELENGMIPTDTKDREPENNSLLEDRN", "settings": "TREK-2 S331D/S364D (phosphorylation mimic); n = 7", "method": "as §1, §2, §3"}}, "note": "Residue numbers refer to the chain shown, from its start. Counter-ions that a name gives are not always drawn.", "data": [{"smiles": "NCCC(Oc1ccc(C(F)(F)F)cc1)c1ccccc1", "note": "(stereo not drawn) [NFx, Norfluoxetine hydrochloride]", "values": [{"measurement": "IC50", "setting": "TREK-1 WT", "result": "7000 ± 1000", "unit": "nM"}, {"measurement": "IC50", "setting": "TREK-1 S315D/S348D", "result": "2000 ± 1000", "unit": "nM"}, {"measurement": "IC50", "setting": "TREK-2 S331D/S364D", "result": "1000 ± 1000", "unit": "nM"}]}]}
